Source: patent US6452008B2, “Pyridone derivatives and process for preparing the same” (Sumitomo Pharmaceuticals Company, Limited, priority 1998, dated 2002)

Biological target: T1, ACAT (Rattus norvegicus, UniProt O70536)
T1 construct: The rat peritoneal-derived macrophage was prepared; endogenous in cells; host or cells: rat peritoneal macrophages (primary)
T1 sequence (O70536 1-545): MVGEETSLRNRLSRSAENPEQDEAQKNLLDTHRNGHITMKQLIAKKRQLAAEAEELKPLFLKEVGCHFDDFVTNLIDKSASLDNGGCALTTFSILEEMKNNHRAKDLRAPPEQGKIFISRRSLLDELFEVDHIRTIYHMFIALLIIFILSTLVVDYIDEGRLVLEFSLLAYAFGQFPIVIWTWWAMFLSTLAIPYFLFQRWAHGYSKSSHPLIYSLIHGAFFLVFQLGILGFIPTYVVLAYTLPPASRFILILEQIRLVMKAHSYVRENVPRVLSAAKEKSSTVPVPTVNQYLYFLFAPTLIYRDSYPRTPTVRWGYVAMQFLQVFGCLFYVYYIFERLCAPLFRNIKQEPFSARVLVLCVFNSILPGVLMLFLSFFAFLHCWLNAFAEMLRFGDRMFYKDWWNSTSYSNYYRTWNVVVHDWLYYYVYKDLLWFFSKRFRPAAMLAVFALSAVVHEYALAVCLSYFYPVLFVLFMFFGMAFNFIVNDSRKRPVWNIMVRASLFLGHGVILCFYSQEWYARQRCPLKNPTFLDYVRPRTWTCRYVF
Experiment: Assay of ACAT inhibitory activity in the macrophage derived from rat peritoneal
Format: cell-based
Details: [9,10-3H]oleic acid, exogenous cholesterol in liposome
Procedure: 2. Assay of ACAT inhibitory activity in the macrophage derived from rat peritoneal:
The rat peritoneal-derived macrophage was prepared according to the method disclosed in the literature: Biochimica et Biophysica Acta, 1126, 73-80, 1992. The ACAT activity was determined by a modified method of the method disclosed in the above literature: Biochimica et Biophysica Acta, 1126, 73-80, 1992, i.e., using radioactive [9,10-^3H]oleic acid and exogenous cholesterol contained in the liposome which was re-constituted according to the method disclosed in the literature: Biochimica et Biophysica Acta, 1213, 127-134, 1994, and calculated from the radioactivity of the labeled cholesterolyl oleate.

IC50: 16 nM
SMILES: CCCCn1cc(C)c(-c2cc(C#CCN(CC)CC)ccc2OC)c(NC(=O)Nc2c(C(C)C)cccc2C(C)C)c1=O [Example 18, N-[1-butyl-2-oxo-4-[5-{3-(diethylamino)-1-propynyl}-2-methoxy]phenyl-5-methyl-1,2-dihydropyridin-3-yl]-N′-(2,6-diisopropylphenyl) urea]
